24 molecules from patent publication US20230203043A1, “NOVEL IMIDAZOPYRAZINE DERIVATIVES” (Hoffmann-La Roche Inc., priority 2020, published 2023) can be followed below.

Structures can show the parent of a compound that is named as a salt. Where two headings read alike, the source gives them in different places.

The subject of this assay is Acinetobacter baumannii ATCC17961. Nature of the assay: Antimicrobial susceptibility testing: 90% growth inhibitory concentration (IC90) determination in Iso-Sensitest broth, OD600 growth. It is filed as cell-based. The procedure, abridged:
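Serial twofold dilution, 10 points, e.g. 50–0.097 μM final; ~5×10^(5) CFU/ml; 35±2° C, 16 h; kinetic OD600 every 20 min; IC90 from log-phase inhibition.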

Where [1] appears, read: Acinetobacter baumannii, ATCC17961, 16 h, read-out: A. baumannii ATCC 17961 IC90 (uM), strain ATCC 17961, OD600 growth over 16 h.
Setting [2] is: Acinetobacter baumannii, ATCC17961, 16 h, strain ATCC 17961, OD600 growth over 16 h, read-out: A. baumannii ATCC 17961 IC90.

With `CCc1cc(Nc2nccn3c(-c4cn(CC(F)F)nc4C(F)(F)F)cnc23)ccc1C(=O)NCC(=O)N1CCCC1CN` (stereo not drawn) [Example 528, N-[2-[2-(aminomethyl)pyrrolidin-1-yl]-2-oxo-ethyl]-4-[[3-[1-(2,2-difluoroethyl)-3-(trifluoromethyl)pyrazol-4-yl]imidazo[1,2-a]pyrazin-8-yl]amino]-2-ethyl-benzamide formate], the IC90 under setting [1] was 0.243 µM.
The same measure, in the same setting: as for `C#CCn1cc(-c2cnc3c(Nc4ccc(C(=O)NCCCNCCCCNCCCN)c(CC)c4)nccn23)c(C(F)(F)F)n1` [Example 155, N-[3-[4-(3-aminopropylamino)butylamino]propyl]-2-ethyl-4-[[3-[1-prop-2-ynyl-3-(trifluoromethyl)pyrazol-4-yl]imidazo[1,2-a]pyrazin-8-yl]amino]benzamide trifluoroacetate], the figure is 0.585 µM.
For `O=C(c1ccc(Nc2nccn3c(-c4cn(CC(F)F)nc4C(F)(F)F)cnc23)cc1Cl)N1CCNCC1` [Example 120, [2-chloro-4-[[3-[1-(2,2-difluoroethyl)-3-(trifluoromethyl)pyrazol-4-yl]imidazo[1,2-a]pyrazin-8-yl]amino]phenyl]-piperazin-1-ylmethanone], the IC90 under setting [2] worked out at 0.109 µM.
The same measure, in the same setting: as for `O=C(c1ccc(Nc2nccn3c(-c4c[nH]nc4C(F)(F)F)cnc23)cc1F)N1CCNCC1` [Example 805, (2-fluoro-4-((3-(3-(trifluoromethyl)-1H-pyrazol-4-yl)imidazo[1,2-α]pyrazin-8-yl)amino)phenyl)(piperazin-1-yl)methanone hydrochloride], the figure is 0.88 µM.
On to `NC1CC(NC(=O)N2CCN(C(=O)c3ccc(Nc4nccn5c(-c6c[nH]nc6C(F)(F)F)cnc45)cc3Cl)CC2)C1` (stereo not drawn) [Example 289, N-(3-aminocyclobutyl)-4-[2-chloro-4-[[3-[3-(trifluoromethyl)-1H-pyrazol-4-yl]imidazo[1,2-a]pyrazin-8-yl]amino]benzoyl] piperazine-1-carboxamide formate], for which, for the setting “strain ATCC 17961, OD600 growth over 16 h, read-out: A. baumannii ATCC 17961 IC90”, the IC90 was determined as 0.234 µM.
Turning to `CCc1cc(Nc2nccn3c(-c4cn(CC#N)nc4C(F)(F)F)cnc23)ccc1C(=O)NCC(=O)NCC1CCNCC1` [Example 524, 4-[[3-[1-(cyanomethyl)-3-(trifluoromethyl)pyrazol-4-yl]imidazo[1,2-a]pyrazin-8-yl]amino]-2-ethyl-N-[2-oxo-2-(4-piperidylmethylamino)ethyl] benzamide formate], under setting [2], the IC90 amounted to 0.395 µM.
As to `N[C@H]1CN[C@H](C(=O)N2CCN(C(=O)c3ccc(Nc4nccn5c(-c6c[nH]nc6C(F)(F)F)cnc45)cc3Cl)CC2)C1` [Example 200, [4-[(2S,4R)-4-aminopyrrolidine-2-carbonyl]piperazin-1-yl]-[2-chloro-4-[[3-[3-(trifluoromethyl)-1H-pyrazol-4-yl]imidazo[1,2-a]pyrazin-8-yl]amino]phenyl] methanone formate], under setting [1], the IC90 stood at 0.372 µM.
Take `CNC(=O)c1ccc(Nc2nccn3c(-c4c[nH]nc4C(F)(F)F)cnc23)cc1Cl` [Example 388, 2-chloro-N-methyl-4-[[3-[3-(trifluoromethyl)-1H-pyrazol-4-yl]imidazo[1,2-a]pyrazin-8-yl]amino]benzamide]: the IC90 under setting [2] is 0.337 µM.
Same read-out and setting: under `O=C(N[C@H]1CCN(C(=O)[C@@H]2C[C@@H](O)CN2)C1)c1ccc(Nc2nccn3c(-c4c[nH]nc4C(F)(F)F)cnc23)cc1Cl` [Example 313, 2-chloro-N-[(3S)-1-[(2S,4R)-4-hydroxypyrrolidine-2-carbonyl]pyrrolidin-3-yl]-4-[[3-[3-(trifluoromethyl)-1H-pyrazol-4-yl]imidazo[1,2-a]pyrazin-8-yl]amino]benzamide] stands 0.995 µM.
`CCc1cc(Nc2nccn3c(-c4c[nH]nc4C(F)(F)F)cnc23)ccc1C(=O)NCCNC(=O)[C@H]1CC[C@H](N)C1` [Example 588, N-(2-((1S,3S)-3-aminocyclopentane-1-carboxamido)ethyl)-2-ethyl-4-((3-(3-(trifluoromethyl)-1H-pyrazol-4-yl)imidazo[1,2-a]pyrazin-8-yl)amino)benzamide formate]: the IC90 under setting [1] came out at 0.46 µM.
Still for that read-out and setting: as for `C[C@@H](NC(=O)c1ccc(Nc2nccn3c(-c4c[nH]nc4C(F)(F)F)cnc23)cc1Cl)C(=O)NCCN(C)C` [Example 98, 2-chloro-N-[(2R)-1-[2-(dimethylamino)ethylamino]-1-oxopropan-2-yl]-4-[[3-[3-(trifluoromethyl)-1H-pyrazol-4-yl]imidazo[1,2-a]pyrazin-8-yl]amino]benzamide formate], the figure is 1.94 µM; as for `NCCCC(=O)N1CCN(C(=O)c2ccc(Nc3nccn4c(-c5c[nH]nc5C(F)(F)F)cnc34)cc2Cl)CC1` [Example 399, 4-amino-1-[4-[2-chloro-4-[[3-[3-(trifluoromethyl)-1H-pyrazol-4-yl]imidazo[1,2-a]pyrazin-8-yl]amino]benzoyl]piperazin-1-yl]butan-1-one formate], 0.214 µM.
Same read-out and setting: as for `O=C(c1ccc(Nc2nccn3c(-c4c[nH]nc4C(F)(F)F)cnc23)cc1Cl)N1CCN(C(=O)[C@H]2C[C@H](O)CN2)CC1` [Example 452, [2-chloro-4-[[3-[3-(trifluoromethyl)-1H-pyrazol-4-yl]imidazo[1,2-a]pyrazin-8-yl]amino]phenyl]-[4-[(2R,4S)-4-hydroxypyrrolidine-2-carbonyl]piperazin-1-yl]methanone formate], the figure is 0.401 µM; as for `C[C@@H](NC(=O)c1ccc(Nc2nccn3c(-c4c[nH]nc4C(F)(F)F)cnc23)cc1Cl)C(=O)N1CCNCC1` [Example 91, 2-chloro-N-[(2R)-1-oxo-1-piperazin-1-ylpropan-2-yl]-4-[[3-[3-(trifluoromethyl)-1H-pyrazol-4-yl]imidazo[1,2-a]pyrazin-8-yl]amino]benzamide formate], 0.645 µM.
Same read-out and setting: under `CCc1cc(Nc2nccn3c(-c4c[nH]nc4C(F)(F)F)cnc23)ccc1C(=O)NCCNC(=O)[C@@H]1C[C@@H](O)CN1` [Example 432, (2S,4R)-N-[2-[[2-ethyl-4-[[3-[3-(trifluoromethyl)-1H-pyrazol-4-yl]imidazo[1,2-a]pyrazin-8-yl]amino]benzoyl]amino]ethyl]-4-hydroxypyrrolidine-2-carboxamide formate] stands 0.751 µM.
`Cc1cc(Nc2nccn3c(-c4c[nH]nc4C(F)(F)F)cnc23)ccc1C(=O)N1CCN(C(=O)[C@H]2CCNC[C@@H]2O)CC1` [Example 465, formic acid; [4-[(3R,4S)-3-hydroxypiperidine-4-carbonyl]piperazin-1-yl]-[2-methyl-4-[[3-[3-(trifluoromethyl)-1H-pyrazol-4-yl]imidazo[1,2-a]pyrazin-8-yl]amino]phenyl]methanone]: the IC90 under setting [1] came out at 1.62 µM.
The same measure, in the same setting: under `CCc1cc(Nc2nccn3c(-c4cn(CC#N)nc4C(F)(F)F)cnc23)ccc1C(=O)N[C@H](C)C(=O)N1CCC(N)CC1` [Example 697, N-[(1R)-2-(4-amino-1-piperidyl)-1-methyl-2-oxo-ethyl]-4-[[3-[1-(cyanomethyl)-3-(trifluoromethyl)pyrazol-4-yl]imidazo[1,2-a]pyrazin-8-yl]amino]-2-ethyl-benzamide formate] stands 0.371 µM; under `CCc1cc(Nc2nccn3c(-c4c[nH]nc4C(F)(F)F)cnc23)ccc1C(=O)NCCNC(=O)CCCN` [Example 217, N-[2-(4-aminobutanoylamino)ethyl]-2-ethyl-4-[[3-[3-(trifluoromethyl)-1H-pyrazol-4-yl]imidazo[1,2-a]pyrazin-8-yl]amino]benzamide formate], 0.543 µM; under `Cc1cc(Nc2nccn3c(-c4cn(CC#N)nc4C(F)(F)F)cnc23)ccc1C(=O)N1CCN(C(=O)[C@H]2CCNC[C@@H]2O)CC1` [Example 382, formic acid; 2-[4-[8-[4-[4-[(3R,4S)-3-hydroxypiperidine-4-carbonyl]piperazine-1-carbonyl]-3-methylanilino]imidazo[1,2-a]pyrazin-3-yl]-3-(trifluoromethyl)pyrazol-1-yl]acetonitrile], 0.749 µM.
Same read-out and setting: under `CCc1cc(Nc2nccn3c(-c4cn(CCN5CCOCC5)nc4C(F)(F)F)cnc23)ccc1C(=O)NCCOCCN` [Example 317, N-[2-(2-aminoethoxy)ethyl]-2-ethyl-4-[[3-[1-(2-morpholin-4-ylethyl)-3-(trifluoromethyl)pyrazol-4-yl]imidazo[1,2-a]pyrazin-8-yl]amino]benzamide formate] stands 1.88 µM.
For `C#CCNC(=O)c1c(C)cc(Nc2nccn3c(-c4cn(Cc5nc(CC6CC6)no5)nc4C(F)(F)F)cnc23)cc1F` [Example 38, 4-[[3-[1-[[3-(cyclopropylmethyl)-1,2,4-oxadiazol-5-yl]methyl]-3-(trifluoromethyl)pyrazol-4-yl]imidazo[1,2-a]pyrazin-8-yl]amino]-2-fluoro-6-methyl-N-prop-2-ynylbenzamide], the IC90 under setting [2] is 0.327 µM.
As for `O=C(c1ccc(Nc2nccn3c(-c4c[nH]nc4C(F)(F)F)cnc23)cc1Cl)N1CCN(C(=O)[C@@H]2CCNC[C@H]2O)CC1` [Example 454, [2-chloro-4-[[3-[3-(trifluoromethyl)-1H-pyrazol-4-yl]imidazo[1,2-a]pyrazin-8-yl]amino]phenyl]-[4-[(3S,4R)-3-hydroxypiperidine-4-carbonyl]piperazin-1-yl]methanone formate], the IC90 under setting [1] was determined as 0.778 µM.
Turning to `CCNC(=O)c1ccc(Nc2nccn3c(-c4cn(CC#N)nc4C(F)(F)F)cnc23)cc1Cl` [Example 230, 2-chloro-4-[[3-[1-(cyanomethyl)-3-(trifluoromethyl)pyrazol-4-yl]imidazo[1,2-a]pyrazin-8-yl]amino]-N-ethylbenzamide], the IC90 under setting [2] stood at 0.091 µM.
For the molecule `N[C@H]1CC[C@H](C(=O)N2CCN(C(=O)c3ccc(Nc4nccn5c(-c6c[nH]nc6C(F)(F)F)cnc45)cc3Cl)CC2)C1` [Example 575, (4-((1S,3S)-3-aminocyclopentane-1-carbonyl)piperazin-1-yl)(2-chloro-4-((3-(3-(trifluoromethyl)-1H-pyrazol-4-yl)imidazo[1,2-a]pyrazin-8-yl)amino)phenyl)methanone formate], under setting [1], the IC90 came to 0.175 µM.

The term IC90 denotes the point of the concentration-response curve where the effect stands at 90%.
